Source: patent publication US7655659B2, “Biomimetic of Evodia rutaecarpa fruit extract for amelioration of inflammation” (Applied Genetics Incorporated Dermatics, priority 2004, dated 2010)
Where two headings read alike, the source gives them in different places. Each block holds one molecule with its values, some of them ahead of it.

What was measured:
[1] = tested on: human microvascular endothelial cells (HMVEC); experiment: Nitric oxide release from endothelial cells treated with methyl nicotinate (Greiss reagents); type: cell-based; conditions: 24 hours; at much lower concentrations than for PGD2 and PGE2 (FIG. 5B)
Protocol: (§1) Normal human epidermal keratinocytes (NHEK) and human microvascular endothelial cells (HMVEC) were obtained from a commercial supplier (Cascade Biologics, Portland, Oreg., USA) and cultured according to the manufacturer's recommendations. Methyl nicotinate was made up as a IM stock solution in H2O. The stock solution was diluted to 100 mM in H2O. The 100 mM methyl nicotinate was further diluted to 125 to 1000 μM methyl nicotinate in the cell culture media and the NHEK and HMVEC cells were treated when they had grown to approximately 70% confluency with fresh media containing the methyl nicotinate. After 24 hours of incubation in the methyl nicotinate media, the cultured media was collected. Nitric oxide was measured using the Greiss reagents as described in the Calbiochem colorimetric nitric oxide assay kit (Calbiochem, San Diego, Calif.). PGs in the cell culture media were analyzed using commercially available PGD2 and PGE2 ELISA kits (R & D Systems, Minneapolis, Minn., USA). […] This is in accordance with studies on human skin showing that erythema induced by topical application of methyl nicotinate is mediated by PGD2 (Morrow et al., 1992). […] Since NO is a vasodilatory agent that induces skin erythema, methyl nicotinate can thus induce skin erythema by induction of NO as well as via induction of PGD2 and PGE2. […]

[2] = tested on: normal human epidermal keratinocytes (NHEK); experiment: Prostaglandin secretion from cultured skin cells treated with methyl nicotinate (PGD2 and PGE2 ELISA); type: cell-based; conditions: NHEK and also HMVEC, 125 to 1000 μM
Protocol: as §1

COX-1 = target: T1, COX-1 (Ovis aries, UniProt P05979); experiment: In vitro COX-1 enzyme assay
T1 sequence (P05979 25-600): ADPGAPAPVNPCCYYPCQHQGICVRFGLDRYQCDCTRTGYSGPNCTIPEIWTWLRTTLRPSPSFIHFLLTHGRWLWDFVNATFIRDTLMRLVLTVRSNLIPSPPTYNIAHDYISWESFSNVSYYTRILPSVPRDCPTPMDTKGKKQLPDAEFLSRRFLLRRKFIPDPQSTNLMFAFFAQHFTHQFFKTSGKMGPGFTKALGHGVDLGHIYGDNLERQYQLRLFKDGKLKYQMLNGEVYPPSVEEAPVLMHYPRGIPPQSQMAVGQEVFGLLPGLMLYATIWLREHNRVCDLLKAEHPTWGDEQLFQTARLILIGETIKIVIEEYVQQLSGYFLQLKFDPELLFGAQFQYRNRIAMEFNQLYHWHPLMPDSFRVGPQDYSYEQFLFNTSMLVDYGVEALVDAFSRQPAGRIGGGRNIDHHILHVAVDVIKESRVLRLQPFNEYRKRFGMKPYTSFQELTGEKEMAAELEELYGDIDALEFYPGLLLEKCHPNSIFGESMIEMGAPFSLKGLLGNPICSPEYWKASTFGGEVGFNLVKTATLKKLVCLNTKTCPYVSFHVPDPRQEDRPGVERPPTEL

HaCaT cells = experiment: Inhibition of UVB-induced PGE2 secretion from HaCaT keratinocytes (PGE2 ELISA); type: cell-based; conditions: for μg/ml to inhibit 80% of PGE2 secretion: UVB-irradiated HaCaT cells
Protocol: The HaCaT keratinocyte cell line was cultured in GibcoBRL (Grand Island, N.Y.) D-MEM low glucose medium containing 10% heat inactivated fetal bovine serum, 1% penicillin/streptomycin, 1% L-glutamine, and 1% nonessential amino acids. […] The media was harvested 24 hours after UVB irradiation and analyzed for prostaglandin E2 (PGE2) content using a PGE2 ELISA kit (R & D Systems Catalogue Number DE0100).
The observation that the selectivity of the Evodia rutaecarpa extract (216, see Example 1) was greater than the selectivity of purified BHT (87, Table 3) led us to conclude that there is synergy among the components in inhibiting COX-2. Initial data is consistent with this synergy existing also in the biomimetic of the present invention. The ability of BHT to inhibit PG secretion from UVB-irradiated HaCaT cells was examined by treating cells with BHT immediately after UVB irradiation. The media was harvested 24 hours later and analyzed for PGE2 content using a PGE2 ELISA kit (R & D Systems, Minneapolis, Minn., USA). BHT inhibited UVB-induced PG secretion at 2-20 μg/ml, which is in the range of the IC50 for inhibition of COX-2 in vitro.
The preferred Evodia mixture of Table 4 was examined for its ability to inhibit UVB-induced PGE2 secretion from HaCaT cells. […] This illustrates the discovery that the Evodia rutaecarpa extract contains a compound which blocks this activity and that when the inhibitor is removed the components act synergistically to inhibit UVB-induced PGE2. The preferred Evodia mixture was also effective at inhibiting the COX-2 enzyme in vitro. […] Thus, while the Evodia mixture is useful for inhibiting UVB-induced PGE2 secretion from skin cells when used at 0.01% (v/v) (FIG. 4), for inflammatory conditions mediated exclusively by COX-2, the preferred formulation would contain at least 1% (v/v) Evodia mixture.

COX-2 = target: T2, COX-2 (Homo sapiens, UniProt P35354); experiment: In vitro purified COX-2 enzyme assay (Cayman COX Inhibitor Screening Assay); type: biochemical; conditions: for IC50: in vitro
T2 construct: purchased Cayman, Ann Arbor, Mich
T2 sequence (P35354 18-604): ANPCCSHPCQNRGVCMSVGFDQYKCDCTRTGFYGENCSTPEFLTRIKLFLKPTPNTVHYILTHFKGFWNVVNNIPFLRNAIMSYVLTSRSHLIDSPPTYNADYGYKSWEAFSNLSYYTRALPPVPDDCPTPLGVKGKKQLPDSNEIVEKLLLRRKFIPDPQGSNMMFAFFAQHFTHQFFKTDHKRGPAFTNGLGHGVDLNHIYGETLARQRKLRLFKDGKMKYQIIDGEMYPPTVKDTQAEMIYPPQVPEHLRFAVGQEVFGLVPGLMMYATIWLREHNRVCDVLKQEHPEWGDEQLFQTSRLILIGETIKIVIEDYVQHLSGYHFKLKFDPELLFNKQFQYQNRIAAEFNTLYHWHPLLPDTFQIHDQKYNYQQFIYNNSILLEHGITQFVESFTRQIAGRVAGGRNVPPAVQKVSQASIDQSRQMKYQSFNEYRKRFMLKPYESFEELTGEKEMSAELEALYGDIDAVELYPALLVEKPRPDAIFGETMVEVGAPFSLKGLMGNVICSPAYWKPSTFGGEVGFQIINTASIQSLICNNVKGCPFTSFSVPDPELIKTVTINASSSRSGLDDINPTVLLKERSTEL
Protocol: It is well known that the major source of inducible prostaglandin release from cells is related to induction of cyclo-oxygenase 2 (COX-2). […] The assay was a commercially available COX Inhibitor Screening Assay (Cayman, Ann Arbor, Mich.) run according to the manufacturer's instructions.
Fractions were analyzed for COX-2 inhibitory activity using the in vitro assay employed in the previous example.

human skin = experiment: Methyl nicotinate-induced erythema in human skin (Dermaspectrometer); type: in vivo; conditions: hydrogel lotion; Evodia mixture 1% (v/v) = 60.8 μg/ml actives, bisabolol 61 μg/ml
Protocol: Each application area was demarked by an adjacent label made with a permanent black ink marker. One hour prior to the methyl nicotinate challenge dose, the Evodia mixture lotion was applied liberally to treatment spots. A Carbopol® hydrogel lotion containing no Evodia mixture was used as a vehicle control. […] Immediately thereafter, 10 μL of a 0.14 mg/ml methyl nicotinate solution in water was applied to each treatment spot. Erythema was read 15, 30, 60 and 90 minutes later. […] Results for all the subjects were calculated as change of erythema readings from time zero.
The same protocol as described above was followed with five sites treated twice daily for two weeks. Three sites were treated with test articles of 0.1%, 0.3% and 1.0% (v/v) Evodia mixture in hydrogel lotion, one site was treated with a vehicle control lotion and one site was not treated with either lotion or methyl nicotinate.
A side by side comparison was made between the Evodia mixture and bisabolol, each formulated in a hydrogel lotion, with bisabolol equal to the total amount of actives in the Evodia mixture.

[3] = read-out: IC50 COX-2 (converted)

Molecule: COC(=O)c1cccnc1 [methyl nicotinate]
NO secretion from HMVEC [1]: induced
PGD2 secretion ([2]; 24 hours (FIG. 5A)): induced
PGE2 secretion ([2]; 24 hours (data not shown)): induced

IC50 (COX-1): 5900 µM
IC50 (COX-2; [3]): 68.1 µM
Selectivity COX-1/COX-2 (COX-2; ratio of IC50s): 87
Molecule: Cc1cc(C(C)(C)C)c(O)c(C(C)(C)C)c1 [Butylated Hydroxytoluene (BHT), butylated hydroxytoluene]
concentration inhibiting UVB-induced PG secretion (HaCaT cells; cells treated immediately after UVB, media harvested 24 hours later): 2 to 20 µg/mL

IC50 (COX-2; read-out: μg/ml to inhibit 50% of COX-2 activity): > 24.8 µM
Molecule: C[n+]1c2n(c(=O)c3ccccc31)CCc1c-2[nH]c2ccccc12 [dehydroevodiamine]

Molecule: O=c1c2ccccc2nc2n1CCc1c-2[nH]c2ccccc12 [rutaecarpine]
μg/ml to inhibit 80% of PGE2 secretion (HaCaT cells): 0.3 µg/mL

Molecule: CC(C)=CCC[C@](C)(O)C1CC=C(C)CC1 (stereo partly drawn) [bisabolol]
effect on methyl nicotinate mediated erythema, side by side comparison (human skin): ineffective

Molecule: C[C@H]1[C@H](C)CC[C@]2(C(=O)O)CC[C@]3(C)C(=CC[C@@H]4[C@@]5(C)CC[C@H](O)C(C)(C)[C@@H]5CC[C@]43C)[C@H]12 [Ursolic Acid (URA), ursolic acid]
IC50 (COX-2; [3]): 59.1 µM

Molecule: evodiamine
μg/ml to inhibit 80% of PGE2 secretion (HaCaT cells): 0.3 µg/mL
